Results as given in patent US5252469A, “Process for producing a transglutaminase derived from streptomyces” (Amano Pharmaceutical Co., Ltd., priority 1990, dated 1993).
Like-named read-outs stand apart in the source and are kept apart here. Peptide text beside a SMILES is read from it. * marks the point of attachment. Cbz = O=C(OCc1ccccc1)*

Columns and labels:
Assay type in all cases: biochemical
[1] = tested on: Enzyme No. 466 (transglutaminase of Streptomyces lavendulae No. 466); test: Influence of metal ions on transglutaminase activity; settings: for Activity of Enzyme No. 466 with metal ion (%): metal ion 1 mM in activity measurement system, None = 100, 10 min; for Effect of metal ion on activity of Enzyme No. 466 (in words): 1 mM, text says all BTGases
Procedure: (§1) Measurement of the activity of BTGase is carried out by performing a reaction using benzyloxycarbonyl-L-glutaminyl glycine and hydroxylamine as substrates in the absence of Ca^2+, forming an iron complex with the resulting hydroxamic acid in the presence of trichloroacetic acid, measuring absorption at 525 nm and determining the amount of hydroxamic acid by a calibration curve to calculate the activity. The BTGase activity is measured by the method described below, unless otherwise indicated.
(§2) To 0.05 ml of an enzyme solution is added 0.5 ml of Reagent A and they are mixed with each other. After reacting at 37° C. for 10 minutes, Reagent B is added thereto to discontinue the reaction and form an Fe complex. Thereafter, absorbance is measured at 525 nm. […] Separately, a calibration curve is prepared using L-glutamic acid γ-monohydroxamic acid instead of the enzyme solution, and the amount of hydroxamic acid produced is determined by the difference in absorbance described above. An enzyme activity which produces 1 μmol of hydroxamic acid per 1 minute is defined as 1 unit.

[2] = tested on: Enzyme No. 83 (transglutaminase of Streptomyces sp No. 83); test: as above; settings: for Activity of Enzyme No. 83 with metal ion (%): metal ion 1 mM in activity measurement system, None = 100, 10 min; for Effect of metal ion on activity of Enzyme No. 83 (in words): 1 mM, text says all BTGases
Procedure: as §1, §2

[3] = tested on: Enzyme No. 466 (transglutaminase of Streptomyces lavendulae No. 466); test: Substrate specificity: reaction of synthetic substrates with hydroxylamine; settings: for Substrate specificity, Enzyme No. 466 (reactivity of substrate with hydroxylamine): Table 6, synthetic substrate 5 mM; for Substrate specificity, Enzyme No. 466 (reactivity of substrate with hydroxylamine) / Substrate specificity (%), Enzyme No. 466: CBZ-Gln-Gly = 100; for Substrate specificity (%), Enzyme No. 466: Table 9; for Reactivity of synthetic substrate with Enzyme No. 466 (in words): substrate 5 mM, text says BTGase (both enzymes)
Procedure: as §1
(§3) To 0.05 ml of an enzyme solution is added 0.5 ml of Reagent A and they are mixed with each other. After reacting at 37° C. for 10 minutes, Reagent B is added thereto to discontinue the reaction and form an Fe complex. Thereafter, absorbance is measured at 525 nm. As a control, absorbance is measured after reacting a previously thermally inactivated enzyme solution in a similar manner and a difference in absorbance between the control and the enzyme solution is measured. Separately, a calibration curve is prepared using L-glutamic acid γ-monohydroxamic acid instead of the enzyme solution, and the amount of hydroxamic acid produced is determined by the difference in absorbance described above. An enzyme activity which produces 1 μmol of hydroxamic acid per 1 minute is defined as 1 unit.
(§4) Using each BTGase, reactions of various synthetic substrates with hydroxylamine were examined. […] In this case, the concentration of various synthetic substrates is 5 mM. In the table, CBZ, Gln, Gly and Asn are abbreviations for benzyloxycarbonyl group, glutaminyl group, glycyl group and asparaginyl group, respectively.

[4] = tested on: Enzyme No. 83 (transglutaminase of Streptomyces sp No. 83); test: as above; settings: for Substrate specificity, Enzyme No. 83 (reactivity of substrate with hydroxylamine): Table 6, synthetic substrate 5 mM; for Substrate specificity, Enzyme No. 83 (reactivity of substrate with hydroxylamine) / Substrate specificity (%), Enzyme No. 83: CBZ-Gln-Gly = 100; for Substrate specificity (%), Enzyme No. 83: Table 9; for Reactivity of synthetic substrate with Enzyme No. 83 (in words): substrate 5 mM, text says BTGase (both enzymes)
Procedure: as §1, §3, §4

[5] = target: T1, MTGase (transglutaminase of guinea pig liver) (UniProt P08587); test: as above; settings: Table 9; CBZ-Gln-Gly = 100
T1 construct: The guinea pig liver-derived transglutaminase was prepared by the method described in Connellan et al; from tissue; host or cells: guinea pig liver
T1 sequence (P08587 2-690 limits assumed): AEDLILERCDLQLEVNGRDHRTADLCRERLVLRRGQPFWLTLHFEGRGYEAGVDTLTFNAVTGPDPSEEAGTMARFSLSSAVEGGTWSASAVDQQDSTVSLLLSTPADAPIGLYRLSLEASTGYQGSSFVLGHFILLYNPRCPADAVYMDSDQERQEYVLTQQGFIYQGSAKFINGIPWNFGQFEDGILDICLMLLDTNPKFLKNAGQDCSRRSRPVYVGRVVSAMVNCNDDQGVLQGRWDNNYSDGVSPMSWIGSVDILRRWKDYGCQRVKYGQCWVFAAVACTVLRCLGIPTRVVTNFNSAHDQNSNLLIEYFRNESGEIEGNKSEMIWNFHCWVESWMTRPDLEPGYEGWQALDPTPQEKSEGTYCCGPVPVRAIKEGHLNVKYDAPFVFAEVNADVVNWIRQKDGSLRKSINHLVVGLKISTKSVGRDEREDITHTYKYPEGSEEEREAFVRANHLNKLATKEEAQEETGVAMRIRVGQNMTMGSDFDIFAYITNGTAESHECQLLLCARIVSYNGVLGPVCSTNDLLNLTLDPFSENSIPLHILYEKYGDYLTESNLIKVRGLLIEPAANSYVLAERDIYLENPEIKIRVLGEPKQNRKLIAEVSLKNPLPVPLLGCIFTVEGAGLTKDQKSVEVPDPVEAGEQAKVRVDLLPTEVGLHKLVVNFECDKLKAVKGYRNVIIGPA
Procedure: as §1, §3, §4
Next, properties of BTGases are compared to those of guinea pig liver-derived transglutaminase. The guinea pig liver-derived transglutaminase was prepared by the method described in Connellan et al., Journal of Biological Chemistry, Vol. 246, No. 4, pp. 1093-1098 (1971). As will be apparent from Tables 9 and 10, various differences in enzymological properties are noted between transglutaminase of guinea pig liver (hereafter, referred to as MTGase) which has been mainly investigated heretofore and BTGases derived from the genus Streptomyces: in particular, differences are noted in temperature stability, molecular weight, isoelectric point and substrate specificity. Further, a difference is noted in that the BTGases of the present invention act in the presence and absence of Ca^2+. Therefore, the respective enzymes of the present invention are different from MTGase in their properties.

[6] = tested on: Enzyme No. 466 (transglutaminase of Streptomyces lavendulae No. 466)
Procedure: as §1, §2
(§5) Each inhibitor was added in a concentration of 1 mM.

[7] = tested on: Enzyme No. 83 (transglutaminase of Streptomyces sp No. 83)
Procedure: as §1, §2, §5

[8] = 1 mM, 25° C. for 30 minutes, text says all BTGases
[9] = inhibitor 1 mM, 25° C. for 30 minutes, None = 100

| SMILES | Activity of Enzyme No. 466 with metal ion (%) [1] [%] | Activity of Enzyme No. 83 with metal ion (%) [2] [%] | Substrate specificity, Enzyme No. 466 (reactivity of substrate with hydroxylamine) [3] | Substrate specificity (%), Enzyme No. 466 [3] [%] | Substrate specificity, Enzyme No. 83 (reactivity of substrate with hydroxylamine) [4] | Substrate specificity (%), Enzyme No. 83 [4] [%] | Substrate specificity (%), MTGase [5] [%] | further results |
| --- | --- | --- | --- | --- | --- | --- | --- | --- |
| [Ba+2].[Cl-].[Cl-] [BaCl2] | 100 | 100 | – | – | – | – | – | – |
| NC(=O)C[C@H](NC(=O)OCc1ccccc1)C(=O)NCC(=O)O [CBZ--Asn--Gly, benzyloxycarbonylasparaginyl glycine] (Cbz-Asn-Gly-OH) | – | – | 0 | 0 | 0 | 0 | 0 | Reactivity of synthetic substrate with Enzyme No. 466 (in words) [3]: No BTGase reacts; Reactivity of synthetic substrate with Enzyme No. 83 (in words) [4]: No BTGase reacts |
| NC(=O)CC[C@H](NC(=O)OCc1ccccc1)C(=O)O [CBZ--Gln, benzyloxycarbonyl glutamine] | – | – | 0 | 0 | 0 | 0 | 0 | Reactivity of synthetic substrate with Enzyme No. 466 (in words) [3]: No BTGase reacts; Reactivity of synthetic substrate with Enzyme No. 83 (in words) [4]: No BTGase reacts |
| NC(=O)CC[C@H](NC(=O)OCc1ccccc1)C(=O)N[C@@H](CCC(N)=O)C(=O)NCC(=O)O [CBZ--Gln--Gln--Gly] (Cbz-Gln-Gln-Gly-OH) | – | – | 35 | 35 | 49 | 49 | 288 | – |
| NC(=O)CC[C@H](NC(=O)OCc1ccccc1)C(=O)NCC(=O)O [CBZ--Gln--Gly, benzyloxycarbonylglutaminyl glycine] (Cbz-Gln-Gly-OH) | – | – | 100 | 100 | 100 | 100 | 100 | Reactivity of synthetic substrate with Enzyme No. 466 (in words) [3]: highest; Reactivity of synthetic substrate with Enzyme No. 83 (in words) [4]: highest |
| CCOC(=O)CNC(=O)[C@H](CCC(N)=O)NC(=O)OCc1ccccc1 [CBZ--Gln--Gly--OEt] (Cbz-Gln-Gly-OEt) | – | – | 65 | 65 | 61 | 61 | 122 | – |
| NC(=O)CC[C@H](NC(=O)CNC(=O)OCc1ccccc1)C(=O)NCC(=O)NCC(=O)O [CBZ--Gly--Gln--Gly--Gly] (Cbz-GQGG-OH) | – | – | 18 | 18 | 10 | 10 | 126 | – |
| [Cl-].[Cl-].[Co+2] [CoCl2] | 98 | 100 | – | – | – | – | – | – |
| [Cl][Cu][Cl] [CuCl2] | 90 | 89 | – | – | – | – | – | Effect of metal ion on activity of Enzyme No. 466 (in words) [1]: inhibited; Effect of metal ion on activity of Enzyme No. 83 (in words) [2]: inhibited |
| O=C(O)CN(CCN(CC(=O)O)CC(=O)O)CC(=O)O [EDTA] | – | – | – | – | – | – | – | Activity of Enzyme No. 466 with inhibitor [6]: 108; Activity of Enzyme No. 83 with inhibitor [7]: 103 |
| [Cl][Fe]([Cl])[Cl] [FeCl3] | 97 | 93 | – | – | – | – | – | – |
| [Cl-].[K+] [KCl] | – | 104 | – | – | – | – | – | – |
| O=C(O)CI [Monoiodoacetic acid, monoiodoacetic acid] | – | – | – | – | – | – | – | Activity of Enzyme No. 466 with inhibitor [6]: 87; Effect of inhibitor on activity of Enzyme No. 466 (in words) [6]: inhibited; Activity of Enzyme No. 83 with inhibitor [7]: 92; Effect of inhibitor on activity of Enzyme No. 83 (in words) [7]: inhibited |
| CCN1C(=O)C=CC1=O [NEM, N-ethylmaleimide] | – | – | – | – | – | – | – | Effect of inhibitor on activity of Enzyme No. 466 (in words) [6, 8]: inhibited; Activity of Enzyme No. 466 with inhibitor [6, 9]: 5; Effect of inhibitor on activity of Enzyme No. 83 (in words) [7, 8]: inhibited; Activity of Enzyme No. 83 with inhibitor [7, 9]: 10 |
| [Cl-].[Na+] [NaCl] | 98 | 102 | – | – | – | – | – | – |
| O=C(O)c1cc[c]([Hg][Cl])cc1 [PCMB, p-chloromercury benzoic acid] | – | – | – | – | – | – | – | Effect of inhibitor on activity of Enzyme No. 466 (in words) [6, 8]: inhibited; Activity of Enzyme No. 466 with inhibitor [6, 9]: 28; Effect of inhibitor on activity of Enzyme No. 83 (in words) [7, 8]: inhibited; Activity of Enzyme No. 83 with inhibitor [7, 9]: 86 |
| O=S(=O)(F)Cc1ccccc1 [PMSF, phenylmethylsulfonyl fluoride] | – | – | – | – | – | – | – | Activity of Enzyme No. 466 with inhibitor [6, 9]: 103; Activity of Enzyme No. 83 with inhibitor [7, 9]: 101 |
| [Cl][Pb][Cl] [PbCl2] | 32 | 59 | – | – | – | – | – | Effect of metal ion on activity of Enzyme No. 466 (in words) [1]: inhibited; Effect of metal ion on activity of Enzyme No. 83 (in words) [2]: inhibited |
| [Cl-].[Cl-].[Sr+2] [SrCl2] | 97 | 100 | – | – | – | – | – | – |
| [Cl-].[Cl-].[Zn+2] [ZnCl2] | 10 | 36 | – | – | – | – | – | Effect of metal ion on activity of Enzyme No. 466 (in words) [1]: inhibited; Effect of metal ion on activity of Enzyme No. 83 (in words) [2]: inhibited |
